How the values were obtained:
human Factor XIa = human Factor XIa (Homo sapiens (Human), UniProt P03951); experiment: Factor XIa Assay (fluorogenic substrate GPR-AFC); format: biochemical; details: Factor XIa (FXIa)
Description: (§1) The effectiveness of a compound of the present invention as an inhibitor of Coagulation Factor XIa can be determined using a relevant purified serine protease, and an appropriate synthetic substrate. The rate of hydrolysis of the chromogenic or fluorogenic substrate by the relevant serine protease was measured both in the absence and presence of compounds of the present invention. Assays were conducted at room temperature or at 37° C. […] A decrease in the rate of fluorescence change in the presence of inhibitor is indicative of enzyme inhibition. Such methods are known to one skilled in the art. The results of this assay are expressed as the half-maximal inhibitory concentrations (IC50), or the inhibitory constant, Ki.
Compounds were pre-incubated for 30 minutes at 25° C. with human (0.04 nM) Factor XIa in 50 mM HEPES buffer with 150 mM sodium chloride, 5 mM calcium chloride, 0.1% PEG 8000, pH 7.4. […] The % inhibition for each data point was calculated from the data and analyzed using the log (inhibitor) vs. response four parameters equation to determine the half-maximal inhibitory concentrations (IC50). The IC50 were converted to equilibrium inhibitory constants (Ki) using the Cheng-Prusoff equation.

Human plasma kallikrein = Human plasma kallikrein (Homo sapiens (Human), UniProt P03952); experiment: Kallikrein Assay (fluorogenic substrate Acetyl-K-P-R-AFC); format: biochemical; details: Plasma Kallikrein (PKal)
Sequence of Human plasma kallikrein (P03952 391-638): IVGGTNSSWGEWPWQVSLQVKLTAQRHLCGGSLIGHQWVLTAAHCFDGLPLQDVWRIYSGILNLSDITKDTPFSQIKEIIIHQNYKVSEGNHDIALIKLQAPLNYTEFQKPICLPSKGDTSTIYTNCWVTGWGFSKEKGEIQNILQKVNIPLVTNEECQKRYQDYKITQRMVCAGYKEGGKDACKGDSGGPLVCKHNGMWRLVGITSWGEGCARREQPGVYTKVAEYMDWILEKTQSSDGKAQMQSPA
Sequence of Human plasma kallikrein (P03952 20-390 partner): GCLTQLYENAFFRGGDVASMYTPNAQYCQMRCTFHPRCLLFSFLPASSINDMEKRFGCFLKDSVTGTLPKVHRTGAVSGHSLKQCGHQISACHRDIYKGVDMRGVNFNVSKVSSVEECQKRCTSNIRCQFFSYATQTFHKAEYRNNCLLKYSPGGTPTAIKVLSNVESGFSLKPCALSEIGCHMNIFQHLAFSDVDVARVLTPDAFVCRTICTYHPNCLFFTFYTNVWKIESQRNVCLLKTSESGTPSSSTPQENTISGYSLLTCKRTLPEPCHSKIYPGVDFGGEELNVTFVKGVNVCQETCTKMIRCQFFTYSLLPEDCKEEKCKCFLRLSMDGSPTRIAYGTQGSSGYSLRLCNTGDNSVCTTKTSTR
Description: as §1, with “Kallikrein” for “Coagulation Factor XIa”
Kallikrein determinations were made in 50 mM HEPES buffer at pH 7.4 containing 150 mM NaCl, 5 mM CaC12, and 0.1% PEG 8000 (polyethylene glycol; Fisher Scientific). Determinations were made using purified Human plasma kallikrein at a final concentration of 0.5 nM (Enzyme Research Laboratories) and the synthetic substrate, Acetyl-K-P-R-AFC (Sigma # C6608) at a concentration of […].
Times required to achieve equilibration between enzyme and inhibitor were determined in control experiments. […] IC50 was determined by inflection point from a four parameter logistic curve fit. Ki was calculated using the Cheng Prusoff equation, Ki = IC50/(1+([S]/Km)).

Sequence of human Factor XIa (P03951 388-625 limits assumed): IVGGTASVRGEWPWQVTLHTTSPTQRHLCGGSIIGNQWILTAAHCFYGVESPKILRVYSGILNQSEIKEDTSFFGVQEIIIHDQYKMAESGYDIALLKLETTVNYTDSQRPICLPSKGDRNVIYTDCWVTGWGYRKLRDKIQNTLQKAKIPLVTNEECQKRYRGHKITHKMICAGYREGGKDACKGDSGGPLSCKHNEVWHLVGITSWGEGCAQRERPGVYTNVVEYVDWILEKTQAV
Sequence of human Factor XIa (P03951 19-387 partner limits assumed): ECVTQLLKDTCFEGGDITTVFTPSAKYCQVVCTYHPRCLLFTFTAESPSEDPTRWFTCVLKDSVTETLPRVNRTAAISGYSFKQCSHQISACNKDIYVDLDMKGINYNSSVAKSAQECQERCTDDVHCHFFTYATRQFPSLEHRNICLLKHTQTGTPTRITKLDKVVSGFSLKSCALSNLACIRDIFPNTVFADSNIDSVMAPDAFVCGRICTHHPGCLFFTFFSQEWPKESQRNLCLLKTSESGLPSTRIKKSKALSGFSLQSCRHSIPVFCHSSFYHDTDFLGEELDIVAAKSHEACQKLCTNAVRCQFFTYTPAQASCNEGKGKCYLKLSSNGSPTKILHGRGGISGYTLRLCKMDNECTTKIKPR

Structure (SMILES) | IC50 (human Factor XIa) [nM] | IC50 (Human plasma kallikrein) [nM]
CC(c1ccc(N2CC3CC3C2=O)nc1)n1cc(NC(=O)c2cncc(-c3c(C(F)F)ccc(Cl)c3F)n2)cn1 (single isomer, unassigned) [Example 10, 6-(3-Chloro-6-(difluoromethyl)-2-fluorophenyl)-N-(1-((S or R)-1-(6-((1R,5S or 1S,5R)-2-oxo-3-azabicyclo[3.1.0]hexan-3-yl)pyridin-3-yl)ethyl)-1H-pyrazol-4-yl)pyrazine-2-carboxamide] | > 10000 | 16.8
CC(c1ccc(N2CC3CC3C2=O)nc1)n1cc(NC(=O)c2cncc(-c3c(C(F)F)ccc(Cl)c3F)n2)cn1 (single isomer, unassigned) [Example 11, 6-(3-Chloro-6-(difluoromethyl)-2-fluorophenyl)-N-(1-((R or S)-1-(6-((1R,5S or 1S,5R)-2-oxo-3-azabicyclo[3.1.0]hexan-3-yl)pyridin-3-yl)ethyl)-1H-pyrazol-4-yl)pyrazine-2-carboxamide] | > 10000 | 17.2
Cc1nc(C(C)n2cc(NC(=O)c3cncc(-c4c(C(F)(F)F)ccc(Cl)c4F)n3)cn2)cnc1N1C[C@H]2C[C@H]2C1=O (single isomer, unassigned) [Example 18] | 4080 | 19.5
Cc1nc(C(C)n2cc(NC(=O)c3cncc(-c4c(C(F)(F)F)ccc(Cl)c4F)n3)cn2)cnc1N1C[C@H]2C[C@H]2C1=O (single isomer, unassigned) [Example 19, 6-(3-Chloro-2-fluoro-6-(trifluoromethyl)phenyl)-N-(1-((R or S)-1-(6-methyl-5-((1R,5S)-2-oxo-3-azabicyclo[3.1.0]hexan-3-yl)pyrazin-2-yl)ethyl)-1H-pyrazol-4-yl)pyrazine-2-carboxamide] | > 10000 | 3.7
CC(c1cnc(N2C[C@H]3C[C@H]3C2=O)cn1)n1cc(NC(=O)c2cncc(-c3c(C(F)F)ccc(Cl)c3F)n2)cn1 (single isomer, unassigned) [Example 20, 6-(3-Chloro-6-(difluoromethyl)-2-fluorophenyl)-N-(1-((S or R)-1-(5-((1R,5S)-2-oxo-3-azabicyclo[3.1.0]hexan-3-yl)pyrazin-2-yl)ethyl)-1H-pyrazol-4-yl)pyrazine-2-carboxamide] | > 10000 | 28.5
CC(c1cnc(N2C[C@H]3C[C@H]3C2=S)nc1)n1cc(NC(=O)c2cncc(-c3c(C(F)F)ccc(Cl)c3F)n2)cn1 (single isomer, unassigned) [Example 31, 6-(3-Chloro-6-(difluoromethyl)-2-fluorophenyl)-N-(1-((S or R)-1-(2-((1R,5S)-2-thioxo-3-azabicyclo[3.1.0]hexan-3-yl)pyrimidin-5-yl)ethyl)-1H-pyrazol-4-yl)pyrazine-2-carboxamide] | > 10000 | 6.3
CC(c1cnc(N2C[C@H]3C[C@H]3C2=S)nc1)n1cc(NC(=O)c2cncc(-c3c(C(F)F)ccc(Cl)c3F)n2)cn1 (single isomer, unassigned) [Example 32, 6-(3-Chloro-6-(difluoromethyl)-2-fluorophenyl)-N-(1-((R or S)-1-(2-((1R,5S)-2-thioxo-3-azabicyclo[3.1.0]hexan-3-yl)pyrimidin-5-yl)ethyl)-1H-pyrazol-4-yl)pyrazine-2-carboxamide] | > 10000 | 16.4
Cc1nc(N2C[C@H]3C[C@H]3C2=O)ncc1C(C)n1cc(NC(=O)c2nc(-c3c(C(F)F)ccc(Cl)c3F)cnc2C)cn1 (single isomer, unassigned) [Example 43] | 4510 | 73.4

The next compounds have a lower IC50 (human Factor XIa) than those just listed; values first:

IC50 (human Factor XIa) [nM] | IC50 (Human plasma kallikrein) [nM] | Structure (SMILES)
1160 | 1.9 | Cc1nc(C(C)n2cc(NC(=O)c3cncc(-c4c(C(F)F)ccc(Cl)c4F)n3)cn2)cnc1N1C[C@H]2C[C@H]2C1=O (single isomer, unassigned) [Example 12, 6-(3-Chloro-6-(difluoromethyl)-2-fluorophenyl)-N-(1-((S or R)-1-(6-methyl-5-((1R,5S)-2-oxo-3-azabicyclo[3.1.0]hexan-3-yl)pyrazin-2-yl)ethyl)-1H-pyrazol-4-yl)pyrazine-2-carboxamide]
2820 | 0.5 | Cc1nc(C(C)n2cc(NC(=O)c3cncc(-c4c(C(F)F)ccc(Cl)c4F)n3)cn2)cnc1N1C[C@H]2C[C@H]2C1=O (single isomer, unassigned) [Example 13, 6-(3-Chloro-6-(difluoromethyl)-2-fluorophenyl)-N-(1-((R or S)-1-(6-methyl-5-((1R,5S)-2-oxo-3-azabicyclo[3.1.0]hexan-3-yl)pyrazin-2-yl)ethyl)-1H-pyrazol-4-yl)pyrazine-2-carboxamide]
550 | 0.8 | Cc1ncc(-c2c(C(F)F)ccc(Cl)c2F)nc1C(=O)Nc1cnn(C(C)c2cnc(N3C[C@H]4C[C@H]4C3=O)c(C)n2)c1 (single isomer, unassigned) [Example 14, 6-(3-Chloro-6-(difluoromethyl)-2-fluorophenyl)-3-methyl-N-(1-((S or R)-1-(6-methyl-5-((1R,5S)-2-oxo-3-azabicyclo[3.1.0]hexan-3-yl)pyrazin-2-yl)ethyl)-1H-pyrazol-4-yl)pyrazine-2-carboxamide]
992 | 0.4 | Cc1ncc(-c2c(C(F)F)ccc(Cl)c2F)nc1C(=O)Nc1cnn(C(C)c2cnc(N3C[C@H]4C[C@H]4C3=O)c(C)n2)c1 (single isomer, unassigned) [Example 15, 6-(3-Chloro-6-(difluoromethyl)-2-fluorophenyl)-3-methyl-N-(1-((R or S)-1-(6-methyl-5-((1R,5S)-2-oxo-3-azabicyclo[3.1.0]hexan-3-yl)pyrazin-2-yl)ethyl)-1H-pyrazol-4-yl)pyrazine-2-carboxamide]
772 | 1.9 | Cc1nc(C(C)n2cc(NC(=O)c3cncc(-c4c(OC(F)F)ccc(Cl)c4F)n3)cn2)cnc1N1C[C@H]2C[C@H]2C1=O (single isomer, unassigned) [Example 16, 6-(3-Chloro-6-(difluoromethoxy)-2-fluorophenyl)-N-(1-((S or R)-1-(6-methyl-5-((1R,5S)-2-oxo-3-azabicyclo[3.1.0]hexan-3-yl)pyrazin-2-yl)ethyl)-1H-pyrazol-4-yl)pyrazine-2-carboxamide]
1740 | 0.7 | Cc1nc(C(C)n2cc(NC(=O)c3cncc(-c4c(OC(F)F)ccc(Cl)c4F)n3)cn2)cnc1N1C[C@H]2C[C@H]2C1=O (single isomer, unassigned) [Example 17, 6-(3-Chloro-6-(difluoromethoxy)-2-fluorophenyl)-N-(1-((R or S)-1-(6-methyl-5-((1R,5S)-2-oxo-3-azabicyclo[3.1.0]hexan-3-yl)pyrazin-2-yl)ethyl)-1H-pyrazol-4-yl)pyrazine-2-carboxamide]
2040 | 9.6 | Cc1ncc(-c2c(C(F)F)ccc(Cl)c2F)nc1C(=O)Nc1cnn(C(C)c2cnc(N3C[C@H]4C[C@H]4C3=O)nc2)c1 (single isomer, unassigned) [Example 29, 6-(3-Chloro-6-(difluoromethyl)-2-fluorophenyl)-3-methyl-N-(1-((S or R)-1-(2-((1R,5S)-2-oxo-3-azabicyclo[3.1.0]hexan-3-yl)pyrimidin-5-yl)ethyl)-1H-pyrazol-4-yl)pyrazine-2-carboxamide]
2830 | 1.8 | Cc1ncc(-c2c(C(F)F)ccc(Cl)c2F)nc1C(=O)Nc1cnn(C(C)c2cnc(N3C[C@H]4C[C@H]4C3=O)nc2)c1 (single isomer, unassigned) [Example 30, 6-(3-Chloro-6-(difluoromethyl)-2-fluorophenyl)-3-methyl-N-(1-((R or S)-1-(2-((1R,5S)-2-oxo-3-azabicyclo[3.1.0]hexan-3-yl)pyrimidin-5-yl)ethyl)-1H-pyrazol-4-yl)pyrazine-2-carboxamide]
1520 | 0.7 | Cc1nc(N2C[C@H]3C[C@H]3C2=O)ncc1C(C)n1cc(NC(=O)c2nc(-c3c(C(F)F)ccc(Cl)c3F)cnc2C)cn1 (single isomer, unassigned) [Example 42]
1380 | 2.4 | Cc1ncc(-c2c(C(F)F)ccc(Cl)c2F)nc1C(=O)Nc1cnn(C(C)c2cnc(N3C[C@H]4C[C@H]4C3=O)c(F)c2)c1 (single isomer, unassigned) [Example 51, 6-(3-Chloro-6-(difluoromethyl)-2-fluorophenyl)-N-(1-((S or R)-1-(5-fluoro-6-((1R,SS)-2-oxo-3-azabicyclo[3.1.0]hexan-3-yl)pyridin-3-yl)ethyl)-1H-pyrazol-4-yl)-3-methylpyrazine-2-carboxamide]

— patent publication US20230286958A1, “PLASMA KALLIKREIN INHIBITORS” (Merck Sharp & Dohme LLC, priority 2020, published 2023)
